Reference: patent US9938240B2, “Fluorinated derivatives of 3-hydroxypyridin-4-ones” (Apotex Technologies Inc., priority 2009, dated 2018)

Key:
[1] = Stepwise formation constants for Fe-ligand system by titration in 0.1M NaCl; format: physicochemical; details: for K111 / K122 / K133: stepwise constant, Fe-ligand system, Example 53; for pFe^3+: pH 7.4, ligand 10 μM, metal 1 μM, HySS
Experimental: Stepwise formation constants for M^n+-ligand systems were determined by spectrophotometric titration when metal complexes have a strong absorbance in the visible region due to ligand to metal charge transfer.
In a typical experiment, the sample solution was prepared according to the following procedure: compound Apo7041 (12.96 mg) was weighed into a 50 mL volumetric flask, and about 40 mL of 0.1 M NaCl was added. The mixture was sonicated for 10 min to give a clear colorless solution. The iron stock solution (atomic absorption standard, Aldrich, 565 μL, 10.00 μmol) was pipetted into the solution, followed by the addition of 1.000 N NaOH (170 μL). More of the 0.1 M NaCl was added to volume and the resulting solution was vortexed to mix. The molar ratio between the total iron and the total Apo7041 was 1/5.1. The mixture was vortexed at rt for 1 h. 20 mL of the sample solution was transferred into a 35 mL beaker by using a 10 mL digital pipet. The sample solution was circulated between the beaker and the flow cell using a sipper system. The sample solution was titrated against hydrochloric acid solutions at 22° C. until the pH reached 0.021. After each addition of acid, the solution was allowed to equilibrate until a constant pH reading was reached. The pH and the UV-Vis spectrum were recorded for each measurement. For each measurement enough acid was added so that there was a slight decrease in the absorbance of the spectrum. Altogether, 68 measurements were taken to finish the experiment.
The resulting data set was then analyzed using pHAB. The formation constants for Fe-Apo7041 system were optimized using the model shown in the first column of the table.
pM^n+ is defined as −log [M(H2O)m]^n+ at physiological conditions, i.e.: pH 7.4, a ligand concentration of 10 μM, and a metal concentration of 1 μM. To calculate pM^n+ for a MLn system, βn and pKa values are needed (βn are the formation constants for M^n++n L^−⇄MLn; pKa are the equilibrium constants for L^−+n H^+⇄LHn^(n-1)+). The pM^n+ is calculated using the HySS software (HYSS© 2000 Protonic Software).
The log β values of the Fe-Apo7323 system were determined by spectrophotometric titration using an Agilent 8453 UV-visible spectroscopy system (see Example 29B). The sample solution was a mixture of Fe^3+ (2×10^−4 M) and Apo7323 (1×10^−3 M) in 0.1 N NaCl aqueous solvent. The titration data in a pH range of 3.408 to 0.655 were fitted with pHAB using the model shown in FIG. 1 to obtain Log β111, Log β122, and Log β133.
The sample solution was a mixture of Fe^3+ (6×10^−3M) and Apo7323 (1.8×10^−2M) in 0.1 N NaCl aqueous solvent. The titration started at pH 1.72 and ended at pH 11.5 using 3 M NaOH as the titrant. The titration data in a pH range of 3 to 10 were fitted with Hyperquad2000 software using the model:
[drawing 175] where 133 is the species (FeL3H3)^3+, 132 is the species is (FeL3H2)^2+, 131 is the species (FeL3H)^+, and 130 is the species FeL3.
(§1) After obtaining three pKa values for Apo7323 (ligand), three pKa values for the Fe-Apo7323 complex, and the log β values for Fe-Apo7323 as shown in the following table, a speciation plot (FIG. 14) was constructed using the HySS software program. pFe was also calculated using the HySS software.

[2] = test system: SH-SY5Y human neuroblastoma cells; details: for CC2 (cytotoxic concentration): H2O2-treated cells, viability below 80%; for CC1 (cytotoxic concentration): absence of H2O2, viability below 80%
Method in brief: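 SH-SY5Y cells were treated with a range of compound concentrations, with or without 50 μM H2O2, in serum-free medium for 16–22 h. Viability was measured by MTT and expressed relative to cells receiving neither H2O2 nor compound. Runs without H2O2 assessed cytotoxicity.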

[3] = Fe speciation plot (HySS); format: physicochemical; details: for % FeL2H2 at pH 7.4 / % FeL3 (species 130, neutral/uncharged ferric chelate) at pH 7.4 / % FeL3H2 (species 132) at pH 7.4 / % FeL3H3 (species 133) at pH 7.4 / % FeL3H (species 131) at pH 7.4: Fe:ligand 1:10, [Fe]=1×10^−6 M, [L]=1×10^−5 M
Text: Example 54 illustrates the speciation distribution of several amino fluorinated derivatives of 3-hydroxypyridin-4-(1H)-ones of the invention. The speciation plot (distribution of ferric chelate species) of two compounds of formula I (Apo7067 and Apo7323) at pH 7.4 is provided in the following table.
as §1

[4] = Oral cassette dosing PK/BBB studies; format: in vivo, male Sprague-Dawley rats; details: for BBB penetration: cassette dosing BBB studies in rats, in words; for AUC brain* / Kp / AUC: oral cassette dosing, male Sprague-Dawley rats; for AUC brain* / AUC: AUC normalized to 1 mg/kg dose; for Kp / AUC: rat; for Kp: brain and plasma, read-out: AUC brain/AUC plasma; for AUC: plasma
Experimental: In-vivo pharmacokinetic (PK) and blood brain barrier (BBB) studies were conducted in male Sprague-Dawley rats using cassette dosing via oral administration. […] No. 15, pp. 652-658.

[5] = 0.1 M NaCl, spectrophotometric titration
[6] = 0.1 M NaCl, spectrophotometric titration, fitted

Structure (SMILES) | Log β111 (Fe3+) [1, 5] | Log β122 (Fe3+) [1, 5] | Log β133 (Fe3+) [1, 5] | Log β130 (Fe3+) ([1]; Example 53: Log β131 − pKa1(C)) | Log β131 (Fe3+) ([1]; Example 53: Log β132 − pKa2(C)) | Log β132 (Fe3+) ([1]; Example 53: Log β133 − pKa3(C)) | K111 [1] | K122 [1] | K133 [1] | CC2 (cytotoxic concentration) [2] [µM] | CC1 (cytotoxic concentration) [2] [µM] | % FeL2H2 at pH 7.4 [3] [%] | % FeL3 (species 130, neutral/uncharged ferric chelate) at pH 7.4 [3] [%] | % FeL3H2 (species 132) at pH 7.4 [3] [%] | % FeL3H3 (species 133) at pH 7.4 [3] [%] | % FeL3H (species 131) at pH 7.4 [3] [%] | pFe^3+ [1] | AUC brain* [4] [ng·h/mL] | Kp [4] | AUC [4] [ng·h/mL] | also measured
Cc1c(O)c(=O)c(C(N2CCOCC2)C(F)(F)F)cn1C (centres unmarked) [Apo7435, 3-hydroxy-1,2-dimethyl-5-(2,2,2-trifluoro-1-morpholinoethyl)pyridin-4(1H)-one] | 15.9 | 30.4 | 44.8 | 35.6 | 39.6 | 42.7 | 15.9 | 14.5 | 14.4 | 320 | 80 | 0.0 | 100 | 0.0 | 0.0 | 0.00 |  |  |  |  | 
CN(C)C(c1c(O)c(=O)ccn1C)C(F)(F)F (centres unmarked) [Apo7041, 2-[1-(dimethylamino)-2,2,2-trifluoroethyl]-3-hydroxy-1-methylpyridin-4(1H)-one] | 18.1 | 35.0 | 50.5 |  |  |  |  |  |  | 320 | 160 |  |  |  |  |  | pFe^3+ = 23.4 | 450 | 0.75 | 600 | Log β130 (Fe3+) ([1]; 0.1 M NaCl, fitted): 38.8; Log β131 (Fe3+) [1, 6]: 44.5; Log β132 (Fe3+) [1, 6]: 48.3; pH from which the FeL3 chelate is stable ([3]; speciation plot FIG. 5): ≥ 5; BBB penetration [4]: less favorable than deferiprone in BBB penetration
O=c1ccn(CC(F)(F)F)c(CN2CCOCC2)c1O [Apo7323, 3-hydroxy-2-(morpholinomethyl)-1-(2,2,2-trifluoroethyl)pyridin-4(1H)-one] | 18.4 | 34.9 | 50.1 | 35.7 | 41.6 | 46.2 | 18.4 | 16.5 | 15.1 | 320 | 160 | 0.0 |  | 0.0 | 0.0 | 3.1 |  |  |  |  | 
CN(C)Cc1c(O)c(=O)ccn1CC(F)(F)F [Apo7067, 2-[(dimethylamino)methyl]-3-hydroxy-1-(2,2,2-trifluoroethyl)pyridin-4(1H)-one] | 20.0 | 38.7 | 55.7 | 34.5 | 42.6 | 49.6 | 20.0 | 18.7 | 17.0 | >640 | 160 |  |  | 24.6 | 1.2 | 61.8 |  | 740 | 1.5 | 500 | BBB penetration [4]: readily penetrates the BBB
Cc1c(O)c(=O)ccn1C [Deferiprone, 3-hydroxy-1,2-dimethylpyridin-4(1H)-one, reference compound] |  |  |  |  |  |  |  |  |  |  |  |  | ~100 |  |  |  | pFe^3+ = 20.2 |  |  |  | Log β130 (Fe3+) ([1]; 0.1 M NaCl, fitted, listed as deferiprone): 37.24; Log β130 (Fe3+) ([1]; 0.1 M NaCl, fitted, listed as drawing 103): Logβ130 = 37.24; Logβ110 (Fe3+) ([1]; 0.1M aqueous NaCl): Logβ110 = 14.85; Logβ120 (Fe3+) ([1]; 0.1M aqueous NaCl): Logβ120 = 27.25
CNC(c1cn(C)c(C)c(O)c1=O)C(F)(F)F (centres unmarked) [Apo7056, 3-Hydroxy-1,2-dimethyl-5-[2,2,2-trifluoro-1-(methylamino)ethyl]pyridin-4(1H)-one] | 18.7 | 35.9 | 51.5 | 36.5 | 42.3 | 47.3 | 18.7 | 17.2 | 15.6 |  |  | 0.0 | 97.5 | 0.0 | 0.0 | 2.40 |  | 770 | 0.56 | 1380 | 
